These results are taken from paper doi:10.1101/2024.08.19.608619, “Discovery of potent SARS-CoV-2 nsp3 macrodomain inhibitors uncovers lack of translation to cellular antiviral response” (bioRxiv, 2024).

Like-named read-outs stand apart in the source and are kept apart here.

The target in test [1] is T1, SARS-CoV-2 nsp3-mac1 (Severe acute respiratory syndrome coronavirus 2, UniProt P0DTD1). Kind of test: biochemical. The format is biochemical. Conditions: SARS-CoV-2 nsp3 macrodomain TR-FRET single point, n=2.
The target in test [2] is T1, SARS-CoV-2 nsp3-mac1. Briefly: biochemical. On the set-up: SARS-CoV-2 nsp3 macrodomain TR-FRET single point, per cent inhibition, n=2.
The mark [3] stands for this setting: read-out: perc_inhibition_mean, batch_name=ASAP-0000281-001.
The mark [4] stands for this setting: read-out: perc_inhibition_mean, batch_name=ASAP-0000282-001.
Where [5] appears, read: read-out: perc_inhibition_mean, batch_name=ASAP-0000283-001.
[6] abbreviates: read-out: perc_inhibition_mean, batch_name=ASAP-0000284-001.
Where [7] appears, read: read-out: perc_inhibition_mean, batch_name=ASAP-0000285-001.
The mark [8] stands for this setting: read-out: perc_inhibition_mean, batch_name=ASAP-0000286-001.
Setting [9] is: read-out: perc_inhibition_mean, batch_name=ASAP-0000287-001.
The mark [10] stands for this setting: read-out: perc_inhibition_mean, batch_name=ASAP-0000288-001.
Where [11] appears, read: read-out: perc_inhibition_mean, batch_name=ASAP-0000289-001.
[12] abbreviates: read-out: perc_inhibition_mean, batch_name=ASAP-0000290-001.
The mark [13] stands for this setting: read-out: perc_inhibition_mean, batch_name=ASAP-0000291-001.
Setting [14] is: read-out: perc_inhibition_mean, batch_name=ASAP-0000292-001.
Where [15] appears, read: read-out: perc_inhibition_mean, batch_name=ASAP-0000293-001.
[16] abbreviates: read-out: perc_inhibition_mean, batch_name=ASAP-0000294-001.
Setting [17] is: read-out: perc_inhibition_mean, batch_name=ASAP-0000295-001.

Regarding `Cc1c(-c2cnc3nc[nH]c(=O)c3c2)ccc2[nH]ncc12` [ASAP-0000281], the perc_inhibition_mean in test [1] (concentration 49.75 uM) was -3.121%. For the same compound, the perc_inhibition_mean in test [1] (concentration 99.5 uM) is -4.364%. In test [2] (setting [3]), the inhibition at 49.75 µM was -3.12% and the inhibition at 99.5 µM was -4.36%.

In the case of `O=C(NC1CCC(F)(F)CC1)c1ncnc2[nH]ccc12` [ASAP-0000282], in test [1] (concentration 49.75 uM), the perc_inhibition_mean is -3.47%. The perc_inhibition_mean in test [1] (concentration 99.5 uM) was -5.78%. Further, in test [2] (setting [4]), the inhibition at 49.75 µM is -3.47% and the inhibition at 99.5 µM was -5.78%.

For the compound `Cc1n[nH]nc1C(=O)N1CCC(c2ccn3ncc(C(=O)N4CCCCC4)c3c2)CC1` [ASAP-0000283], the perc_inhibition_mean in test [1] (concentration 49.75 uM) is recorded as 29.33%. Further, the perc_inhibition_mean in test [1] (concentration 99.5 uM) was determined as 45.786%. In test [2] (setting [5]), the inhibition at 49.75 µM worked out at 29.3% and the inhibition at 99.5 µM was determined as 45.8%.

For the compound `Cc1nc(C(=O)N2CCC(c3ccn4ncc(C(=O)N5CCCCC5)c4c3)CC2)c(=O)[nH]c1C` [ASAP-0000284], the values for the perc_inhibition_mean in test [1] (concentration 49.75 uM) and in test [1] (concentration 99.5 uM) were 26.409% and 44.216%, respectively. In addition, the inhibition at 49.75 µM in test [2] (setting [6]) turned out to be 26.4%. The inhibition at 99.5 µM in test [2] (setting [6]) was 44.2%.

For `O=C(c1ncc[nH]1)N1CCC(c2ccn3ncc(C(=O)N4CCCCC4)c3c2)CC1` [ASAP-0000285], the perc_inhibition_mean in test [1] (concentration 49.75 uM) is reported as 18.474%. Moreover, the perc_inhibition_mean in test [1] (concentration 99.5 uM) was 37.203%. Further, in test [2] (setting [7]), the inhibition at 49.75 µM was 18.5% and the inhibition at 99.5 µM was found to be 37.2%.

`CCn1cnc(Nc2ncnc3c2ncn3Cc2cc(OC)no2)c1` [ASAP-0000286]: the perc_inhibition_mean in test [1] (concentration 49.75 uM) is recorded as -16.725%. Moreover, in test [1] (concentration 99.5 uM), the perc_inhibition_mean is recorded as -12.789%. In test [2] (setting [8]), the inhibition at 49.75 µM is -16.7% and the inhibition at 99.5 µM is -12.8%.

For `O=C(Nc1ccccc1)Nc1ccc(C(=O)N2CCc3ccncc32)cc1` [ASAP-0000287], the perc_inhibition_mean in test [1] (concentration 49.75 uM) is reported as -4.305%. Also, in test [1] (concentration 99.5 uM), the perc_inhibition_mean stood at 0.234%. Also, in test [2] (setting [9]), the inhibition at 49.75 µM is -4.3% and the inhibition at 99.5 µM worked out at 0.234%.

With `O=C(Nc1ccccc1)Nc1ccc(C(=O)N2CCOCC23CCC3)cc1` [ASAP-0000288], in test [1] (concentration 49.75 uM), the perc_inhibition_mean is reported as -5.176%. Moreover, in test [1] (concentration 99.5 uM), the perc_inhibition_mean is -3.184%. For the same compound, in test [2] (setting [10]), the inhibition at 49.75 µM was -5.18% and the inhibition at 99.5 µM is -3.18%.

Consider `C[C@H](NC(=O)c1ccc(NC(=O)Nc2ccccc2)cc1)[C@@H]1CCCO1` [ASAP-0000289], for which the perc_inhibition_mean in test [1] (concentration 49.75 uM) is recorded as -4.279%. Moreover, the perc_inhibition_mean in test [1] (concentration 99.5 uM) is -4.858%. For the same compound, in test [2] (setting [11]), the inhibition at 49.75 µM is -4.28% and the inhibition at 99.5 µM was -4.86%.

Take `O=C1C[C@H](CNC(=O)c2ccc(NC(=O)Nc3ccccc3)cc2)CCN1` [ASAP-0000290]: the perc_inhibition_mean in test [1] (concentration 49.75 uM) was found to be 1.223%. Also, the perc_inhibition_mean in test [1] (concentration 99.5 uM) came out at 4.013%. In test [2] (setting [12]), the inhibition at 49.75 µM stood at 1.22% and the inhibition at 99.5 µM worked out at 4.01%.

For `C[C@H](NC(=O)c1ccc(NC(=O)Nc2ccccc2)cc1)c1ccccn1` [ASAP-0000291], the perc_inhibition_mean in test [1] (concentration 49.75 uM) came out at 2.448%. Also, the perc_inhibition_mean in test [1] (concentration 99.5 uM) was 0.349%. Further, in test [2] (setting [13]), the inhibition at 49.75 µM was determined as 2.45% and the inhibition at 99.5 µM worked out at 0.349%.

Consider `CN(C(=O)c1ccc(NC(=O)Nc2ccccc2)cc1)[C@@H]1CN2CCC1CC2` [ASAP-0000292], for which the perc_inhibition_mean is listed as -4.01% in test [1] (concentration 49.75 uM) and 2.773% in test [1] (concentration 99.5 uM). In test [2] (setting [14]), the inhibition at 49.75 µM was -4.01%. Besides, in test [2] (setting [14]), the inhibition at 99.5 µM was 2.77%.

For `CN1CCO[C@H](CNC(=O)c2ccc(NC(=O)Nc3ccccc3)cc2)C1` [ASAP-0000293], the perc_inhibition_mean in test [1] (concentration 49.75 uM) is reported as -0.616%; in test [1] (concentration 99.5 uM) it was 3.272%. In addition, in test [2] (setting [15]), the inhibition at 49.75 µM was -0.616%. Besides, in test [2] (setting [15]), the inhibition at 99.5 µM turned out to be 3.27%.

On to `Nc1ncnc2c1ncn2Cc1cccc2ncnn12` [ASAP-0000294], for which the perc_inhibition_mean in test [1] (concentration 49.75 uM) is given as -0.553%; in test [1] (concentration 99.5 uM), -3.161%. Moreover, the inhibition at 49.75 µM in test [2] (setting [16]) was -0.553%. The inhibition at 99.5 µM in test [2] (setting [16]) was -3.16%.

Regarding `O=C(Nc1ccccc1)Nc1ccc(C(=O)N2CCc3nc[nH]c3C2)cc1` [ASAP-0000295], the perc_inhibition_mean is -3.024% in test [1] (concentration 49.75 uM) and -2.379% in test [1] (concentration 99.5 uM). Further, in test [2] (setting [17]), the inhibition at 49.75 µM was -3.02%. The inhibition at 99.5 µM in test [2] (setting [17]) was -2.38%.
